Literature values in article PMC9851200, “Multiparameter phenotypic screening for endogenous TFEB and TFE3 translocation identifies novel chemical series modulating lysosome function” (Autophagy, 2022).

Assays:
Design in all cases: method as in original PKIS2 published data
[1] = target: kinases (KINOMEscan panel) (Homo sapiens, UniProt Q9NQU5); settings: PAK6; Published KINOMEscan; ref original PKIS2 published data; cited from earlier work
[2] = target: kinases (KINOMEscan panel) (Homo sapiens, UniProt Q9UBF8); settings: kinase PI4KB; Published KINOMEscan; ref original PKIS2 published data; cited from earlier work
[3] = target: kinases (KINOMEscan panel) (Homo sapiens, UniProt P21127); settings: CDK11B; Published KINOMEscan; ref original PKIS2 published data; cited from earlier work
[4] = target: kinases (KINOMEscan panel) (Homo sapiens, UniProt Q00526); settings: CDK3; Published KINOMEscan; ref original PKIS2 published data; cited from earlier work
[5] = target: T1, kinases (KINOMEscan panel) (Homo sapiens, UniProt Q8NFD2); settings: ANKK1; Published KINOMEscan; ref original PKIS2 published data; cited from earlier work
T1 sequence (Q8NFD2 1-765): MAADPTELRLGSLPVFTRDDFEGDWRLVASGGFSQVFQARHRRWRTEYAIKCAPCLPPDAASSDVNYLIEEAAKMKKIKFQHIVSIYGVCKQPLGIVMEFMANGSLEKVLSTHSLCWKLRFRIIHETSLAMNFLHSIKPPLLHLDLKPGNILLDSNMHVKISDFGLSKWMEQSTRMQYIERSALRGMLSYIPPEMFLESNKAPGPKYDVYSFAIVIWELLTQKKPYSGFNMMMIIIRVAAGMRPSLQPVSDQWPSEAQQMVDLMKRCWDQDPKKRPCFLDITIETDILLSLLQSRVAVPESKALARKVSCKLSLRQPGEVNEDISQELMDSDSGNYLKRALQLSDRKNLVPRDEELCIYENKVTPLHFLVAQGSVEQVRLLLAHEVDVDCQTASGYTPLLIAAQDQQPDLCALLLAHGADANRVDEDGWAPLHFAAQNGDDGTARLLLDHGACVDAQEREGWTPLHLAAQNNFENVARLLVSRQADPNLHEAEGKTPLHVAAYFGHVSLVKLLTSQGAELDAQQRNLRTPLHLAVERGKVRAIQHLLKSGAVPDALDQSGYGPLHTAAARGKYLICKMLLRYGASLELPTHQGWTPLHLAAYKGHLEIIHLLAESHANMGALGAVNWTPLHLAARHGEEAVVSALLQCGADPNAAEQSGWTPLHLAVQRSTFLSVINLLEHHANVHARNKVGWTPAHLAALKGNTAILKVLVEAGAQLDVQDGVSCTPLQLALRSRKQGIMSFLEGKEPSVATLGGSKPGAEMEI

[6] = target: T2, kinases (KINOMEscan panel) (Homo sapiens, UniProt Q9UF33); settings: kinase EPHA6; Published KINOMEscan; ref original PKIS2 published data; cited from earlier work
T2 sequence (Q9UF33 23-1036): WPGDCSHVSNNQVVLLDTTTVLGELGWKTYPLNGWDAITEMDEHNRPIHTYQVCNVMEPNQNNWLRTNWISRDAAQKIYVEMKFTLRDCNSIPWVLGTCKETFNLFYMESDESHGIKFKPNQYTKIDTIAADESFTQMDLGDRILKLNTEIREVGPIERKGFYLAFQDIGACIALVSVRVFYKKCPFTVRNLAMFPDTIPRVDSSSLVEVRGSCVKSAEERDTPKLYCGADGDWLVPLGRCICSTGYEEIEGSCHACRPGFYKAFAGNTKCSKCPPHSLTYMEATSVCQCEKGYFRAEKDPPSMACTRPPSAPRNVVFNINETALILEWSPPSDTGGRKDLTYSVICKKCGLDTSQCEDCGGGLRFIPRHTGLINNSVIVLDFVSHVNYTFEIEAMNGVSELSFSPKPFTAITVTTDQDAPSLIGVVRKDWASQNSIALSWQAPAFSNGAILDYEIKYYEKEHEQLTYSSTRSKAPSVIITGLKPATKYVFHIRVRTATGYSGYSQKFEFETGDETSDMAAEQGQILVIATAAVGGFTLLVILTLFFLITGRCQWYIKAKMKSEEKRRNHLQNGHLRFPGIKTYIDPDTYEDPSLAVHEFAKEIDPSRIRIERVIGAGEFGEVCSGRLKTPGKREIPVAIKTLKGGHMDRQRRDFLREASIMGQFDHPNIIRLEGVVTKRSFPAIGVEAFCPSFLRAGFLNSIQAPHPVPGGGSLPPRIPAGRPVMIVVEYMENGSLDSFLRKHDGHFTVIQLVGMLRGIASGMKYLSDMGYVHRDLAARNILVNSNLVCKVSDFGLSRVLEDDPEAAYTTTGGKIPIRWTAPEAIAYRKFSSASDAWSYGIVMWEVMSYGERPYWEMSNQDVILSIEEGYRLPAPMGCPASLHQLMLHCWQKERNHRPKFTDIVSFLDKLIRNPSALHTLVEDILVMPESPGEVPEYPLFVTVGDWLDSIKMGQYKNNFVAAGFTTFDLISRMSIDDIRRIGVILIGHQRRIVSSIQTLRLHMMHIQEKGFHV

[7] = target: kinases (KINOMEscan panel) (Homo sapiens, UniProt P12931); settings: SRC; Published KINOMEscan; ref original PKIS2 published data; cited from earlier work
[8] = target: kinases (KINOMEscan panel) (Homo sapiens, UniProt P11309); settings: Published KINOMEscan; ref original PKIS2 published data; cited from earlier work
kinases (KINOMEscan panel) (Homo sapiens, UniProt P11309), sequence (P11309 whole entry): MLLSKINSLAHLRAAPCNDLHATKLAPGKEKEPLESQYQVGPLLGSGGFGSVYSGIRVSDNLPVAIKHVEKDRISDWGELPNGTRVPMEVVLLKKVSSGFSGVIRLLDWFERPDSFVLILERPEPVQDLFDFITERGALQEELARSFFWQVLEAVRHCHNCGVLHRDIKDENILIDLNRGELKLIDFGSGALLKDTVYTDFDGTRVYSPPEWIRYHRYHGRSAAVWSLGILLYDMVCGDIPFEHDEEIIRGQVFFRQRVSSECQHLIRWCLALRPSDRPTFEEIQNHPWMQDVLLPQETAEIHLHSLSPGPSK

kinases (KINOMEscan panel) (Homo sapiens, UniProt Q9NQU5), sequence (Q9NQU5 whole entry): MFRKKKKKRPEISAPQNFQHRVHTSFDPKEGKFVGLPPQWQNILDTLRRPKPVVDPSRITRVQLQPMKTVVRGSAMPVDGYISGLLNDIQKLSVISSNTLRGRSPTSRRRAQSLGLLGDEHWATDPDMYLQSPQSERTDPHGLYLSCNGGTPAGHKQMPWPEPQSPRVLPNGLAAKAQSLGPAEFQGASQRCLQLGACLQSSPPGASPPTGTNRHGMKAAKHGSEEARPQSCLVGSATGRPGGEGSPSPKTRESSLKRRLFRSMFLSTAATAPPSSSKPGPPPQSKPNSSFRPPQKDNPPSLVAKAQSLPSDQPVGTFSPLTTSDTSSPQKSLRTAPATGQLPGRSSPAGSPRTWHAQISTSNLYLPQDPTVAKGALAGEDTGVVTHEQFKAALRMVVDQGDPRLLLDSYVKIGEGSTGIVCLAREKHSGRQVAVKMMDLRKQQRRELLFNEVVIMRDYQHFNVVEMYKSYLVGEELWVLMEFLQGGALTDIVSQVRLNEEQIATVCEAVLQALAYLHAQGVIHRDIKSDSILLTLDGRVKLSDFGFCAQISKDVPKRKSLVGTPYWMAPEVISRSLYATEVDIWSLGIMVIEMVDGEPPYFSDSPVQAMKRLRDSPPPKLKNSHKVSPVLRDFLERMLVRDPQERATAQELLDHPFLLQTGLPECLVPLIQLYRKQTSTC
kinases (KINOMEscan panel) (Homo sapiens, UniProt Q9UBF8), sequence (Q9UBF8 whole entry): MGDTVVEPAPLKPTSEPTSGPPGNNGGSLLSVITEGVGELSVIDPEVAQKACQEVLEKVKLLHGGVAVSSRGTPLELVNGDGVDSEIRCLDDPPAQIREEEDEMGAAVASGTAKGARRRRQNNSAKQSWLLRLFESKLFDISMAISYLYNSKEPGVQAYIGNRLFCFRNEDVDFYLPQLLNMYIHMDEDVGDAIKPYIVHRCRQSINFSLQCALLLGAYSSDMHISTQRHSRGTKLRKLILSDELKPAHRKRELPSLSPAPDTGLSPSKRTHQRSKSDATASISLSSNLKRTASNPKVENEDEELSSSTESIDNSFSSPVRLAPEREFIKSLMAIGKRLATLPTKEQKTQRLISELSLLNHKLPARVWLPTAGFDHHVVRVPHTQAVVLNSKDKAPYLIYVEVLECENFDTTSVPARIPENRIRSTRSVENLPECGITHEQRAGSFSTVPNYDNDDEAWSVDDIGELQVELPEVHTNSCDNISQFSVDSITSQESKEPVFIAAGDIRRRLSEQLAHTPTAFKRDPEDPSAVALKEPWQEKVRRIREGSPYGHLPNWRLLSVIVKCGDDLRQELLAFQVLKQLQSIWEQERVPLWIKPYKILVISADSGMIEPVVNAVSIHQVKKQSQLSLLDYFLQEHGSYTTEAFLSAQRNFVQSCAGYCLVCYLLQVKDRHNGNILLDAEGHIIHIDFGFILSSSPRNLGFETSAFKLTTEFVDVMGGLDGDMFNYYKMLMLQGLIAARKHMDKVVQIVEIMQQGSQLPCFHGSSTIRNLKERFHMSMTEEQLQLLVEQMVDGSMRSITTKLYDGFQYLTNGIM
kinases (KINOMEscan panel) (Homo sapiens, UniProt Q00526), sequence (Q00526 whole entry): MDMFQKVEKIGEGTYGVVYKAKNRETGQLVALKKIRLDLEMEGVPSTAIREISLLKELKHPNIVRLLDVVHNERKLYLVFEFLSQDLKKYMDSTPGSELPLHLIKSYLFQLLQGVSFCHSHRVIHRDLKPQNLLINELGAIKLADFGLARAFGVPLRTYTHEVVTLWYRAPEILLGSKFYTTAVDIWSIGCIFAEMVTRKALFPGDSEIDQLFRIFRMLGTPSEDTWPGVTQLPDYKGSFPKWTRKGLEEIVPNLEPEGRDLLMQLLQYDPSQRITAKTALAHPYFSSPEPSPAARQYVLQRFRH
kinases (KINOMEscan panel) (Homo sapiens, UniProt P12931), sequence (P12931 whole entry): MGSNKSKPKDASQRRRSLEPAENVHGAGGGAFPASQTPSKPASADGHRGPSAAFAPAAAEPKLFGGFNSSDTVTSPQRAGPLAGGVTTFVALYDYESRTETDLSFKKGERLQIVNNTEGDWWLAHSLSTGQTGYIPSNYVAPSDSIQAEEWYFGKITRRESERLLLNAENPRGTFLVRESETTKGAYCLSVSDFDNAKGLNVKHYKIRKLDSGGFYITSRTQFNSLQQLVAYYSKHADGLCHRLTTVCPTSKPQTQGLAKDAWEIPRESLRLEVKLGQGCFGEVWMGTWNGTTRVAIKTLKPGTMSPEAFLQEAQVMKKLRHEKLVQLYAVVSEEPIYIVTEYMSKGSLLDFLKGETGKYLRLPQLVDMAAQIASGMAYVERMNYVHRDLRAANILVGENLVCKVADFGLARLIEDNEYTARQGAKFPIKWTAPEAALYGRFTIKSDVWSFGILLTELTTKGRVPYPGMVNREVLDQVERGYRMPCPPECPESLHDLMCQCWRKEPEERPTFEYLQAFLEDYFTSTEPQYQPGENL
kinases (KINOMEscan panel) (Homo sapiens, UniProt P21127), sequence (P21127 whole entry): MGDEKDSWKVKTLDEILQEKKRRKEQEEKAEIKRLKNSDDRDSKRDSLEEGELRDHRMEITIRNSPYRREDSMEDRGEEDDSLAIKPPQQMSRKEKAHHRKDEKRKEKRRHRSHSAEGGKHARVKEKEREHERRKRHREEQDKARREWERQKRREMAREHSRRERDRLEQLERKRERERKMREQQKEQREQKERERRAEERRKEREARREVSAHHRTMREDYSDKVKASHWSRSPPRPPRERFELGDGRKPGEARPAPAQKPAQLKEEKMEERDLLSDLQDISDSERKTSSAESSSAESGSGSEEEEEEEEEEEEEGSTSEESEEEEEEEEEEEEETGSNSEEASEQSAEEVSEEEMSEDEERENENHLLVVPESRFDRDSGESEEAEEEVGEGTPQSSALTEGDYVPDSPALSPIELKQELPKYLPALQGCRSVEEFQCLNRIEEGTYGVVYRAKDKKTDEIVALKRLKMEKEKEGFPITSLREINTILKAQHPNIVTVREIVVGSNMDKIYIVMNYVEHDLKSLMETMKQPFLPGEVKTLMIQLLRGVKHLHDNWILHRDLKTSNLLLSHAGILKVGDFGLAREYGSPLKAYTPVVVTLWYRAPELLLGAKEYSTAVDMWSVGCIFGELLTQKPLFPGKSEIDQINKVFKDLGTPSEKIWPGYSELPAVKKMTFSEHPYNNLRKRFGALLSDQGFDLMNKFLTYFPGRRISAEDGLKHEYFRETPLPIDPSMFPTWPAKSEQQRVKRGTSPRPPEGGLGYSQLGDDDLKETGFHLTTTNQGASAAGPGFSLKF

Cc1cccc(-c2nc(Nc3ccncc3)c3ccccc3n2)n1 [NK215]
KINOMEscan PAK6 [1]: 3
KINOMEscan PI4KB [2]: 0
KINOMEscan CDK11B [3]: 0
KINOMEscan CDK3 [4]: 20
KINOMEscan ANKK1 [5]: 0
KINOMEscan EPHA6 [6]: 0
KINOMEscan SRC [7]: 20
KINOMEscan PIM1 [8]: 0
